Data published in ChEMBL document CHEMBL1201862, “PubChem BioAssay data set” (2004).
Activity calls are given as the source filed them. For most assays here, no stated cut-off is given here; in the data, actives have a measured EC50 and inactives only a lower limit.

How the values were obtained:
[1] = molecular target: T1, Corticotropin-releasing factor receptor 2/Corticotropin-releasing factor-binding protein (Homo sapiens, UniProt P24387+Q13324); test: Dose Response confirmation of uHTS hits for small molecule antagonists of the CRF-binding protein and CRF-R2 receptor complex.; assay type: functional; settings: read-out: IC50_Mean
T1 sequence (Q13324 whole entry): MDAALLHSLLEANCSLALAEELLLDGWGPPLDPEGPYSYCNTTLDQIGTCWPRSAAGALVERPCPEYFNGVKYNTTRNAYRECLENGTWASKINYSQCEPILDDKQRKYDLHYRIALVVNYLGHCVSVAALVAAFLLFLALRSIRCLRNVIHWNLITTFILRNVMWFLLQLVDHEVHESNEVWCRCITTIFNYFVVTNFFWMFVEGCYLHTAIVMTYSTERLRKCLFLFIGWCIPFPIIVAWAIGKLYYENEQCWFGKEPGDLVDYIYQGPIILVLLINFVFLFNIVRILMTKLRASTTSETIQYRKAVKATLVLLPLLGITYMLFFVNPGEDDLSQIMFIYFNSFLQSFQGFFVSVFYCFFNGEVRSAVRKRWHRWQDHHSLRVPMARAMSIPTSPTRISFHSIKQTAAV
T1 sequence (P24387 whole entry): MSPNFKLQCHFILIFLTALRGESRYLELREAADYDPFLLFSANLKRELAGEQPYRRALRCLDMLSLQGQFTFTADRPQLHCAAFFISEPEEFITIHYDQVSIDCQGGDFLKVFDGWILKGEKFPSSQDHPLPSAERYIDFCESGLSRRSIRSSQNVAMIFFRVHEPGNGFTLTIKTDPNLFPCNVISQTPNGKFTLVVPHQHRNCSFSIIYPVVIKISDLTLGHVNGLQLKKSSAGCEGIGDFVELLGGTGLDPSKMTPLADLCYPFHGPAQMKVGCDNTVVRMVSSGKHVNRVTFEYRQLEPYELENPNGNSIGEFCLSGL

[2] = molecular target: T1, Corticotropin-releasing factor receptor 2/Corticotropin-releasing factor-binding protein; test: activators of CRF receptor 2 with binding protein – uHTS hits, confirmation (AID 602473); assay type: functional; settings: read-out: EC50_Mean
Streptokinase A = molecular target: T2, Streptokinase A (Streptococcus pyogenes serotype M1, UniProt P10520); test: viability-normalized secreted streptokinase activity reduction – plasminogen activation absorbance, OD405, dose response (AID 1914); assay type: functional, Streptococcus pyogenes M1 GAS;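 further: secreted streptokinase activity via plasminogen activation per viability signal from cell pellet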
T2 sequence (P10520 whole entry): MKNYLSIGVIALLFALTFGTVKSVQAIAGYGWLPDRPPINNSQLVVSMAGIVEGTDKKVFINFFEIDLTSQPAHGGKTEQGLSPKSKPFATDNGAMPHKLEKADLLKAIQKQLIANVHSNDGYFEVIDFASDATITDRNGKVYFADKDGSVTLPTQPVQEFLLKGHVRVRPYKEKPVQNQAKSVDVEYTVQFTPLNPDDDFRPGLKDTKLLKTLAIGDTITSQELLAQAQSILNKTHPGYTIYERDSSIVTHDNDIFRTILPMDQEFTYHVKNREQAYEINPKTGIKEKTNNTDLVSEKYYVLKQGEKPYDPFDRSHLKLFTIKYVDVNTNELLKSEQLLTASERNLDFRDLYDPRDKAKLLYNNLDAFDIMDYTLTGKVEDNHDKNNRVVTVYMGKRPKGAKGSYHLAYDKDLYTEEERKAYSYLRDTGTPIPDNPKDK

[3] = tested on: Streptococcus sp. 'group A'; test: Streptococcus pyogenes SK(-)GAS viability under kanamycin – luminescence, BacTiterGlo, confirmation, counter-screen for streptokinase expression inhibitor project, dose response (AID 1900); assay type: functional, organism-based
Streptococcus = test: GAS UMAA2166 growth inhibition – luminescence, BacTiterGlo, counter-screen for streptokinase expression inhibitor project, dose response (AID 1915); assay type: functional, organism-based;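 further: potency for reduction of bacterial viability or growth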
Protein RecA = molecular target: T3, Protein RecA (Mycobacterium tuberculosis, UniProt P9WHJ3); test: Fluorescence Cell-Free Homogeneous Dose Retest to Identify Inhibitors of RecA-Intein Splicing Activity. [Related pubchem assays (depositor defined):AID2097, AID2223, AID489010, AID492950]; assay type: functional
T3 sequence (P9WHJ3 whole entry): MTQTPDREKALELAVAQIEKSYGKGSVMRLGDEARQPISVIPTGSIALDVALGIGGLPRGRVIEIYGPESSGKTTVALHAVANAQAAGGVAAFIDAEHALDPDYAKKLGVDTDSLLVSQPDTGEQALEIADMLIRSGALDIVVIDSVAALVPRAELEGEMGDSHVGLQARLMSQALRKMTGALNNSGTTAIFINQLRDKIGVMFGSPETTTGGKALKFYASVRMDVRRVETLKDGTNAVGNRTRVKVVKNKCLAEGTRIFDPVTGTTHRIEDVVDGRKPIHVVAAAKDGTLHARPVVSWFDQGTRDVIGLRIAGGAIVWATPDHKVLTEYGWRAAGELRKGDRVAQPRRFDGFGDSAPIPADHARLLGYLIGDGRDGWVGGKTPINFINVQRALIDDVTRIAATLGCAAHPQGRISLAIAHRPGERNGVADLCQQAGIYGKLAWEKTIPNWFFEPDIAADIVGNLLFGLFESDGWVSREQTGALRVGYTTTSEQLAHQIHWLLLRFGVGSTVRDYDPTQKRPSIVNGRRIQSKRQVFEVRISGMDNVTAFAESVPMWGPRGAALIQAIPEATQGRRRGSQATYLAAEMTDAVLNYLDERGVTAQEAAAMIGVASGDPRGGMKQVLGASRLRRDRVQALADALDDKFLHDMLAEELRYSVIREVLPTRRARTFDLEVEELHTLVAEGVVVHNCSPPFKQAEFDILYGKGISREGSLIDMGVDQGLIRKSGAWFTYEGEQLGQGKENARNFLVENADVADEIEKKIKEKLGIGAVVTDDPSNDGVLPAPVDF

[4] = molecular target: T4, Replicative DNA helicase DnaB (Mycobacterium tuberculosis, UniProt P9WMR3); test: DnaB intein splicing inhibitors, dose response, biochemical, cell-free fluorescence (AID 449749); assay type: functional
T4 sequence (P9WMR3 whole entry): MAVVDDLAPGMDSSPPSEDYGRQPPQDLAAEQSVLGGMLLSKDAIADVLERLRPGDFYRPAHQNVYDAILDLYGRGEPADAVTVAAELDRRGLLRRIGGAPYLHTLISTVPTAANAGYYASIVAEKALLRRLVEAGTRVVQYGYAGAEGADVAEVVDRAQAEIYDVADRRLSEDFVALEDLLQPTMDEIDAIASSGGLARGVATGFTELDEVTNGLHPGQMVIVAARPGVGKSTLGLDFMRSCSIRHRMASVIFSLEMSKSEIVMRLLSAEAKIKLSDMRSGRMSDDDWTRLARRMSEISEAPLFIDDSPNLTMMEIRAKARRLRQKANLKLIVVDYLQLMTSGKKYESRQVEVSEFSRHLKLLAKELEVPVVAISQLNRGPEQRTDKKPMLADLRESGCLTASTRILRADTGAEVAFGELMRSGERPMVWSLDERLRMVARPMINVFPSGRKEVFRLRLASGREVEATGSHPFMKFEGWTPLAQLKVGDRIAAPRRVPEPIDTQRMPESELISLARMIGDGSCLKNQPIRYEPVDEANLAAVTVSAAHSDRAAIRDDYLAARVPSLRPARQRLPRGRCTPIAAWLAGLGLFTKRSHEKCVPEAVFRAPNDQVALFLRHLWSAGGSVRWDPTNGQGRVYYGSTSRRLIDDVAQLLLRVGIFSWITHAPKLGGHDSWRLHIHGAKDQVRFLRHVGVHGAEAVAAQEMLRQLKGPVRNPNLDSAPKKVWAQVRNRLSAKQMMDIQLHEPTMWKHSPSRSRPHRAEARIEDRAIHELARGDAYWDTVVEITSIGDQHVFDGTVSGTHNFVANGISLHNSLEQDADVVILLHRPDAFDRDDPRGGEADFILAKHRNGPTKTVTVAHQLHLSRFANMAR

[5] = luciferase reporter signal suppression in cells – H4 neuroglioma cells, luminescence, dose response (AID 1990); assay type: functional, cell-based
[6] = alpha-synuclein stem-loop luciferase translation blockers – H4 neuroglioma cells, luminescence, confirmation (AID 1988); assay type: functional, cell-based
[7] = Luminescence Cell-Based Dose Response HTS to Identify Inhibitors of 5'UTR Stem-Loop Driven Prion Protein mRNA Translation in H4 Neuroglioblastoma Cells. [Related pubchem assays: 1827 (Project Summary), 1813 (Primary HTS)]; assay type: functional
Large T antigen = Large T antigen (Simian virus 40, UniProt P03070); assay type: functional, Betapolyomavirus macacae;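 further: Confirmatory-stage PubChem screen for compounds that inhibit SV40 T antigen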
Large T antigen, sequence (P03070 whole entry): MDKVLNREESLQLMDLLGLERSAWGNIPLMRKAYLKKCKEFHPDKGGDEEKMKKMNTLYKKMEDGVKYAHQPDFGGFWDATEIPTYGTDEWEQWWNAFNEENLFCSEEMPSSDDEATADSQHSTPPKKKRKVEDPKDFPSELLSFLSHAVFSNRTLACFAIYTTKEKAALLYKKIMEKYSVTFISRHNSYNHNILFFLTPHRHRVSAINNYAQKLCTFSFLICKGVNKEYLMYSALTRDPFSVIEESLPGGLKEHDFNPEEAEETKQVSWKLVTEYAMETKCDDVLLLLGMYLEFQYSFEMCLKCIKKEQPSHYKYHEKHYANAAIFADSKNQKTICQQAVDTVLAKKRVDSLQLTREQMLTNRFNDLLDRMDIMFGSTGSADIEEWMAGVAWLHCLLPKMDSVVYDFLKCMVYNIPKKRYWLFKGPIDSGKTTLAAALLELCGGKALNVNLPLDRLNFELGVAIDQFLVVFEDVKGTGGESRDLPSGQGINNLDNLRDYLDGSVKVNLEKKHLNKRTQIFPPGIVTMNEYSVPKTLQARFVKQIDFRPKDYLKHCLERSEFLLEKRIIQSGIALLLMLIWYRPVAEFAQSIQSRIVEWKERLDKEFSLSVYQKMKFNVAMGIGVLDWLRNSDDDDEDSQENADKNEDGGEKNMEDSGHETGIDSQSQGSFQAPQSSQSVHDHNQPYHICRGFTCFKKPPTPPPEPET

O=C(CNC(=O)C1CCCCC1)Nc1ccc(F)c(Cl)c1
IC50 [1]: > 47.1 µM (inactive) | EC50 [2]: > 53 µM (inactive)

COc1cccc(-c2cc(C(F)(F)F)nc(N3CCC(C)CC3)n2)c1
EC50 (Streptokinase A): 97.6 µM (inconclusive) | EC50 [3]: 5.93 µM (active) | EC50 (Streptococcus): 13.2 µM (active)

O=C(Cc1csc(NC(=O)Nc2cccc(Cl)c2)n1)NCc1ccccn1
EC50 (Streptokinase A): > 150 µM (not active) | EC50 [3]: 7.28 µM (active) | EC50 (Streptococcus): > 150 µM (not active)

COc1ccc(N=C(S)NC(NC(=O)CCl)C(Cl)(Cl)Cl)c([N+](=O)[O-])c1 (stereo not drawn)
EC50 (Protein RecA): 3.31 µM (active) | AC50 [4]: 28.5 µM (active)

Cc1nn(-c2ccccc2)c2c1C1(C(=O)N(C(C)C)c3ccccc31)C(C#N)=C(N)O2 (stereo not drawn)
EC50 (Protein RecA): 2.88 µM (active) | AC50 [4]: 4.5 µM (active)

CN(C)S(=O)(=O)c1ccc(Cl)c(-c2nnc3n2CCCCC3)c1
EC50 [5]: > 120 µM (not active) | EC50 [6]: > 120 µM (not active) | EC50 [7]: > 120 µM (not active)

Cc1cc(C)nc(SCc2cc(=O)c(OC(=O)c3ccc(S(=O)(=O)N4CCCC4)cc3)co2)n1
IC50 (Large T antigen): 37.3 µM (active)

Cc1nc2c(c(N3CCOCC3)n1)OCC(=O)N2
EC50 [5]: 42.6 µM (active) | EC50 [6]: 20.7 µM (active) | EC50 [7]: > 120 µM (not active)

COc1ccc(Br)cc1S(=O)(=O)Nc1nnc[nH]1
EC50 (Streptokinase A): > 150 µM (not active)

C=C(C)CN1CC[C@]23c4c5ccc(O)c4O[C@H]2c2[nH]c4ccccc4c2C[C@@]3(O)C1C5
EC50 [5]: 13.7 µM (active) | EC50 [6]: 13.3 µM (active) | EC50 [7]: 109 µM (active)

O=C(Nc1ccn(Cc2c(F)c(F)cc(F)c2F)n1)c1ccc(COc2ccc(Cl)cc2Cl)o1
EC50 (Streptokinase A): > 150 µM (not active) | EC50 [3]: 36.3 µM (active) | EC50 (Streptococcus): > 150 µM (not active)

Cc1ccc(S(=O)(=O)N[C@@H](CCCCN)C(=O)CCl)cc1
EC50 (Protein RecA): 12.6 µM (active) | AC50 [4]: > 120 µM (inactive)

CCOC(=O)c1c(C)n[nH]c1NCc1ccccc1
EC50 [5]: 26 µM (active) | EC50 [6]: > 120 µM (not active) | EC50 [7]: > 120 µM (not active)

Cc1cccc(NCCC#N)c1
EC50 [5]: > 120 µM (not active) | EC50 [6]: > 120 µM (not active) | EC50 [7]: > 120 µM (not active)

CCCc1nn(C)c2c1C(c1ccncc1)C(C#N)=C(N)O2 (stereo not drawn)
EC50 (Protein RecA): 3.79 µM (active) | AC50 [4]: 9.7 µM (active)

Cc1ccc(NC(=O)CSc2ncc(-c3ccccc3)n2C(=O)c2ccccc2)cc1
EC50 (Protein RecA): 1.77 µM (active) | AC50 [4]: 2.56 µM (active)
